What was measured:
[1] = tested on: chicks of chair label JA657 strain; experiment: Hypnotic and sedative activities in chicks (alternate lighting, test between 2.00 pm and 3.00 pm); conditions: for ST (sleeping time) / Sedation time (after waking up, Stage 2) / FAT (falling-asleep time): IM; for FAT (falling-asleep time): to the nearest minute
Beagle dogs = experiment: Hypnotic activity in Beagle dogs (polygraphic measurement of the conscious and sleeping states); type: in vivo, dog; conditions: for Mean duration of the state of consciousness: Consciousness / Mean duration of the state of consciousness: Drowsiness / Mean duration: P.S. (paradoxal sleep) / Mean duration: Slow-wave sleep S1 + S2 / Mean duration: Total sleep / Mean latency time: Drowsiness / Mean latency time: P.S. (paradoxal sleep) / Mean latency time: Slow-wave sleep S1: 7 Beagle dogs, IV single bolus; for Mean duration of the state of consciousness: Consciousness / Mean duration of the state of consciousness: Drowsiness / Mean duration: P.S. (paradoxal sleep) / Mean duration: Slow-wave sleep S1 + S2 / Mean duration: Total sleep: 150 min recording; for Hypnotic power (in words): Beagle dogs, IV, sleep with high proportion of slow waves, consciousness reduced, latencies reduced
Experimental: During each test, the dogs are taken to a recording room in which they are connected to a Schwarzer ED 24 polygraph driven by Brainlab® for Windows® by means of a flexible cable. The dog is then placed in a 0.70×1×0.8 m metal cage in which it stays for 150 minutes.
The test products and the placebo were administered intravenously as a single bolus into the anterior median vein. The recordings are noted in periods of 30 seconds following the five states of vigilance defined by Shelton et al.:
deep slow-wave sleep, and
by examining the amplitude and frequency of the 2 frontal EEG plots (frontal), the EOG plots (bilateral) and the EMG plots (neck muscles) as follows:
Conscious: The dogs may be standing, sitting or lying down, or moving between these positions. Their eyes are open. This state includes all the episodes of multiple voltage and frequency with muscular activity.
Drowsy: The dogs are lying down with the eyes closed for most of the time. The EEG plots show slow-wave cycles (5-7 Hz) without the appearance of spindles. Large-amplitude synchronous slow waves (4-7 Hz) appear on a background of rapid activity. The EMG tends to be reduced compared with the conscious state.
Light sleep (SL1 or S1): The dogs are lying down in the stretched ventral position or, usually, in an incomplete circle. The relaxation is total. The EEG plots are characterized by K complexes and/or spindles. The amplitude increases.
Deep sleep (SL2 or S2): The dogs are lying down, with relaxed muscles. They remain without reaction to moderate stimulations (by sound). The slow delta waves (<4 Hz) with an amplitude of at least 70 μV constitute at least 20% of a period of 30 seconds.
Paradoxal sleep (PS): The dogs are lying down with the eyes closed and occasionally display rapid contractions of the eyelids and/or myoclonia, in particular of the labial extensor muscles. The EEG plots are of low voltage and varied frequencies. The EOG plots show rapid contractions. The EMG plot is of low amplitude, with the exception of the short-lived clonus. A period is classified as paradoxal sleep only if the preceding period is a period of sleep. The end of a period of paradoxal sleep is determined by the appearance of K complexes or spindles, or by the appearance of EMG activity.
The test compounds are administered intravenously by means of a vehicle having the composition: 50/50 (V/V) PEG-400/water for injectable preparations, as a single bolus of 10 ml per 12 kg of live weight.
The placebo consists of the intravenous administration of the vehicle alone, having the composition: 50/50 (V/V) PEG-400/water for injectable preparations, as a single bolus of 10 ml per 12 kg of live weight.
The distribution of the observation time spent in each of the stages of consciousness and sleep, as well as the latency times for onset of the first stages of each type of sleep, are given in Table I.

[2] = 1 μmol/100 g, batch means of 3 chicks, limit values if >2 batches
[3] = 2 μmol/100 g, batch means of 3 chicks, limit values if >2 batches
[4] = 0.5 μmol/100 g, batch means of 3 chicks, limit values if >2 batches

Row | SMILES | ST (sleeping time) [1, 2] | Sedation time (after waking up, Stage 2) [1, 2] | FAT (falling-asleep time) [1, 2] | ST (sleeping time) [1, 3] | Sedation time (after waking up, Stage 2) [1, 3] | FAT (falling-asleep time) [1, 3] | ST (sleeping time) [1, 4] | other results
1 | COc1ccc2[nH]c3c(c2c1)CCN=C3C [10-METHOXYHARMALAN, 10-methoxy harmalan] | – | – | – | – | – | – | – | ST (sleeping time) ([1]; 1.4 μmol/100 g (3 mg/kg)): 0; Sedation time (after waking up, Stage 2) ([1]; 1.4 μmol/100 g (3 mg/kg)): 0
2 | COc1ccc2c3c([nH]c2c1)C(C)=NCC3 [HARMALIN, harmaline] | – | – | – | – | – | – | – | ST (sleeping time) ([1]; 1.4 μmol/100 g (3 mg/kg)): 0; Sedation time (after waking up, Stage 2) ([1]; 1.4 μmol/100 g (3 mg/kg)): 0
3 | CCC1CCC(=O)N2Cc3c([nH]c4ccc(OC)cc4c3=O)C12 (stereo not drawn) [Example 9] | 36 | 44 | 7 | – | – | – | – | –
4 | COc1ccc2[nH]c3c(c(=O)c2c1)CN(C(C)=O)C3C (stereo not drawn) [Example 6, 2-Acetyl-7-methoxy-3-methyl-9-oxo-1,3,4,9-tetrahydropyrrolo[3,4-b]quinoline] | – | – | – | 33 | 27 | 15 | – | –
5 | CCC1=C2c3[nH]c4ccc(OC)cc4c(=O)c3CN2C(=O)CC1 [Example 4] | 30 | 47 | 13 | – | – | – | – | Mean duration of the state of consciousness: Consciousness (Beagle dogs; 1.5 μmol/kg): 115.4 min; Mean duration of the state of consciousness: Drowsiness (Beagle dogs; 1.5 μmol/kg): 15.9 min; Mean duration: P.S. (paradoxal sleep) (Beagle dogs; 1.5 μmol/kg): 2.4 min; Mean duration: Slow-wave sleep S1 + S2 (Beagle dogs; 1.5 μmol/kg): 16.3 min; Mean duration: Total sleep (Beagle dogs; 1.5 μmol/kg): 34.6 min; Mean latency time: Drowsiness (Beagle dogs; 1.5 μmol/kg): 63.8 min; Mean latency time: P.S. (paradoxal sleep) (Beagle dogs; 1.5 μmol/kg): 114.8 min; Mean latency time: Slow-wave sleep S1 (Beagle dogs; 1.5 μmol/kg): 84.8 min; Hypnotic power (in words) (Beagle dogs): marked hypnotic power
6 | C=C1c2[nH]c3ccc(OC)cc3c(=O)c2CN1C(C)=O [Example 1, 2-Acetyl-7-methoxy-3-methylene-9-oxo-1,3,4,9-tetrahydropyrrolo[3,4-b]quinoline] | – | – | – | 30 | 35 | 10.5 | – | –
7 | CCCC(C)C1(CC)C(=O)NC(=O)NC1=O (stereo not drawn) [PENTOBARBITAL, pentobarbital sodium] | 36 | – | 13 | – | – | – | 0 | –
8 | CN1C(=O)CN=C(c2ccccc2)c2cc(Cl)ccc21 [DIAZEPAM, diazepam] | 24-70 | 17-20 | 2-7 | 81-100 | 14-15 | 2-5 | 10-50 | FAT (falling-asleep time) [1, 4]: 3-6
9 | COc1ccc2[nH]c3c(c(=O)c2c1)CN1C(=O)CCC(c2ccccc2)=C31 [Example 5] | – | – | – | – | – | – | – | ST (sleeping time) ([1]; 0.87 μmol/100 g (3.12 mg/kg)): 36; Sedation time (after waking up, Stage 2) ([1]; 0.87 μmol/100 g (3.12 mg/kg)): 44; FAT (falling-asleep time) ([1]; 0.87 μmol/100 g (3.12 mg/kg)): 10; Mean duration of the state of consciousness: Consciousness (Beagle dogs; 1 μmol/kg): 108.1 min; Mean duration of the state of consciousness: Drowsiness (Beagle dogs; 1 μmol/kg): 15.8 min; Mean duration: P.S. (paradoxal sleep) (Beagle dogs; 1 μmol/kg): 2.6 min; Mean duration: Slow-wave sleep S1 + S2 (Beagle dogs; 1 μmol/kg): 23.4 min; Mean duration: Total sleep (Beagle dogs; 1 μmol/kg): 41.9 min; Mean latency time: Drowsiness (Beagle dogs; 1 μmol/kg): 51.7 min; Mean latency time: P.S. (paradoxal sleep) (Beagle dogs; 1 μmol/kg): 110.7 min; Mean latency time: Slow-wave sleep S1 (Beagle dogs; 1 μmol/kg): 69.0 min; Hypnotic power (in words) (Beagle dogs): marked hypnotic power
10 | COc1ccc2[nH]cc(CCNC(C)=O)c2c1 [MELATONIN, melatonin] | 0 | 16-36 | – | 0 | 47-105 | – | 0 | Hypnotic activity (in words) ([1]; administration during the daylight phase between 2.00 pm and 3.00 pm): no hypnotic activity

Reference: patent US6335346B1 (MACEF, priority 1999, dated 2002)
